Laboratory results from ChEMBL document CHEMBL1141271, “Laurendecumallenes A-B and laurendecumenynes A-B, halogenated nonterpenoid C(15)-acetogenins from the marine red alga Laurencia decumbens” (J Nat Prod, 2007).

Tested on: A549
Assay: Cytotoxicity against human A549 cells
Type: functional, cell-based

Compound	IC50
C#C/C=C\C[C@@H]1O[C@@H]2C[C@H](Br)[C@H](CC)O[C@@H]2C[C@@H]1Br	> 10 µg/mL
CC[C@H]1O[C@@H]2C[C@@H](C=C=CBr)O[C@@H]2C[C@@H](O)[C@H](O)C[C@@H]1Br [LAURENDECUMALLENE A]	> 10 µg/mL
CC[C@@H](Br)[C@H]1C[C@H](O)[C@H](O)C[C@H]2O[C@H](C=C=CBr)C[C@H]2O1 [LAURENDECUMALLENE B]	> 10 µg/mL
C#C/C=C\C[C@H]1O[C@@H]2C[C@H](Br)[C@@H](CC)O[C@H]1C[C@H]2OO [LAURENDECUMENYNE A]	> 10 µg/mL
C#C/C=C\C[C@@H]1O[C@@H]2C[C@H](Br)[C@H](CC)O[C@@H]2C[C@@H]1Cl [LAURENDECUMENYNE B]	> 10 µg/mL
